Assay results published in patent publication US10494341B2, “Compound containing indoleacetic acid core structure and use thereof” (Beijing An Jian Xi Bio-Medical Technology Co., Ltd., priority 2015, dated 2019).

Assays:
[1] = Metabolic kinetics in mice after gavage (plasma level of intermediate II); assay type: in vivo
Description: Metabolic kinetics of the compound a in mice: the compound a and the intermediate II were administered to mice respectively by gavage at a dose of 25 mg/kg each time and 12 mg/kg each time (equimolar concentration). Equal volume of blood samples were collected at the time points of 1, 3, 5, 9, 18 and 24 hours, and centrifuged immediately. 100 μL of supernatant (plasma) was got, added with 2-fold volume of acetonitrile immediately to extract the blood samples twice, and centrifuged at high speed (12,000 rpm) for 5 minutes. The level of the intermediate II in the organic phase was determined by HPLC, and the content of the compound fragments was detected by LC-MS. Pharmacokinetics was analyzed by Pharmacokinetics Solutions 2.0 software (Summit Research Services, Montrose, Colo., USA).

A549 cells = assay: A549 transplanted tumors in nude mice, compound used alone; assay type: in vivo
Description: Except cisplatin (intraperitoneal injection, once a week), all compounds were administered by gavage, once a day for 5 weeks continuously.

peripheral leukocytes = assay: Protection against blood cell (leukocyte) damage induced by paclitaxel; assay type: in vivo; details: mice, compounds 6 mg/kg/day gavage; for protective effect on peripheral leukocytes (words): paclitaxel 10 mg/kg/day i.p.; for protective effect on leukocytes at the late stage of chemotherapy: paclitaxel
Description: In this experiment, 10-week-old male mice (C57BL/6J) weighing about 20 grams were used as subjects, and 6 mice were taken as a group. The mice were divided into 5 groups: 1. Paclitaxel; 2. Paclitaxel+amifostine; 3. Paclitaxel+intermediate I+intermediate II; 4. paclitaxel+compound a; and 5. paclitaxel+compound b. Firstly, each group of mice was administered with a protective agent, and the specific amounts were as follows: compounds a and b: each 6 mg/kg/day (8.1 μM), amifostine: 400 mg/kg/day (1.5 mM), intermediate I+Intermediate II: each 3 mg/kg/day (8.1 μM). Except that amifostine was intraperitoneally injected (30 minutes before administering Paclitaxel, amifostine was administered), the other protective agents were administered by gavage (once a day, 25 times continuously). 12 hours after the compound a and the corresponding protective agents were administered, Paclitaxel was intraperitoneally injected (10 mg/kg/day, once every 3 days, 9 times continuously), and 7, 14, 21, 28 days later, blood of mice was drawn respectively. The number of leukocytes was analyzed.

[2] = Content of active components in tumor tissue and normal peripheral tissue (HPLC); assay type: in vivo; details: last day of treatment
Description: The experiment was carried out using compound a in this example. Under sterile conditions, a suspension of colon cancer cells (SW480) in logarithmic growth phase (cell concentration was adjusted to 1×10^7/mL with physiological saline) was inoculated subcutaneously to 5 to 6 weeks old balb/c female nude mice on the right rear back, and each nude mice was inoculated at an amount of 0.3 ml, i.e. the number of cells contained was 3×10^6 per each mouse. 10 days later, subcutaneous transplanted tumor of 100-250 mm^3 appeared. […] During the dosing period, the body weight of the nude mice was measured every two days with a precision electronic balance. […] After tumor formation, the surface morphology and activity of the transplanted tumor were examined, and the longest diameter (a) and the shortest diameter (b) of the tumor nodules were measured every 3 days with a vernier caliper. […] The tumor tissue and normal peripheral tissues were taken on the last day of treatment, and the content of the intermediate I therein was measured by HPLC (FIG. 9a). At the same time, paraffin sections were made, the occurrence of apoptosis was detected by terminal labeling (FIG. 9b), and the relative survival percentages of normal tissue and tumor tissue were calculated (the results are summarized in FIG. 9b).

[3] = Degradation of the compound in plasma (10% bovine serum medium, HPLC); assay type: in vitro ADME; details: 10 μM, 37° C., within 24 hours
Description: Determination of the stability of the compound: (1) degradation of the compound in plasma: Compound a (10 μM) dissolved in DMSO was cultured with 10% bovine serum medium (5 mL) at 37° C. 200 μL of medium was collected at the time points of 1, 3, 6, 12 and 24 hours, respectively, added with equal volume of acetonitrile for reaction, and subjected to high speed centrifugation (13,000 rpm) for 5 minutes. The level of degradation of the compound was determined by HPLC. (2) Degradation of the compound in cells: the compound a dissolved in DMSO was added at a final concentration of 10 μM to a 6-well culture dish containing SW480 cells and incubated in carbon dioxide incubator. The cells were collected at the time points of 1, 3, 6, 12, and 24 hours, respectively, washed fully, then extracted with 0.5 mL of acetonitrile, and centrifuged at high speed (12,000 rpm) for 5 minutes. The level of degradation of the compound in the organic phase was determined by HPLC.

[4] = test system: mouse colon cancer cells (MCA-38); assay: Killing effect of cisplatin on tumor cells with compound (LDH); assay type: cell-based; details: MCA-38, 10, 30 and 90 μM, 24 hours
Description: The mechanism of compounds enhancing killing effect of chemotherapeutic agents on tumor cells while protecting normal cells: mouse colon cancer cells (MCA-38) and primarily-cultured normal mouse intestinal mucosa cells were cultured in a 96-well plate, respectively. 24 hours later, various concentrations (10, 30 and 90 μM) of compound b was respectively added to the cell culture medium, and incubated for 24 hours. LDH was used to detect the damage of the cells, and the cells were collected and extracted for protein. The expression levels of adenosine triphosphate-binding transporter (ABCG2) and the cell cycle-dependent protein […] (p21) were detected by immunoblotting (performed according to the instructions provided by the manufacturer). […] ABCG2 is a transporter, and can pump anticancer drugs out of the cells. […] The high expression of p21 allows the cells to be in non-dividing quiescent phase, so that cells are not sensitive to chemotherapeutic drugs or injury in other forms. The compounds of the present invention make these proteins expressed differentially in normal tissues and tumor tissues, which is one of the reasons for selectively protecting normal tissues and enhancing the sensitivity of tumors to treatment.

[5] = gavage, compound a 25 mg/kg, intermediate II 12 mg/kg (equimolar), intermediate II measured in plasma

Compound	content of intermediate II in plasma, versus mice given intermediate II ([1]; gavage 25 mg/kg)	metabolites in plasma ([1]; gavage 25 mg/kg)	AUC0 [1, 5] [ng·h/mL]	Cmax [1, 5] [ng/mL]	T1/2 [1, 5] [h]	Tmax [1, 5] [h]	inhibition of tumors (A549 cells; A549, high-dose compound a (25 mg/kg/day) gavage, 5 weeks) [%]	inhibitory effect on the tumor (A549 cells; A549, cisplatin 5 mg/kg/week i.p., compound a 5 and 25 mg/kg/day, intermediates 12.5 mg/kg/day each)	body weights of the animals (A549 cells; A549, high dose, during administration)	protective effect on peripheral leukocytes (words) (peripheral leukocytes)	protective effect on leukocytes at the late stage of chemotherapy (peripheral leukocytes)	content of active components in tumor tissues versus peripheral normal tissues [2]	compound hydrolyzed in bovine serum [3] [%]	killing effect of cisplatin on colon cancer cells [4]	protective effect on peripheral leukocytes (words) (peripheral leukocytes; listed as Compound b)
COC1=C(OC)C(=O)C(CCCCCCCCCCOC(=O)Cc2c(C)n(C(=O)c3ccc(Cl)cc3)c3cc(OC)ccc23)=C(C)C1=O [compound a]	significantly higher	significantly reduced	63200	19800	7.6	5	≥ 60	dose-dependent inhibitory effect against tumor	not significantly reduced	apparently reduce radiation-induced peripheral leukocyte damage	significantly better than that of amifostine	evidently higher	11	–	–
COc1ccc2c(CC(=O)OCCCCCCCCCCc3c(C)c(O)c(OC)c(OC)c3O)c(C)n(C(=O)c3ccc(Cl)cc3)c2c1 [compound b]	–	–	–	–	–	–	–	–	–	apparently reduce radiation-induced peripheral leukocyte damage	significantly better than that of amifostine	–	–	significantly enhances the killing effect of cisplatin	strongest protective effect
